Paper PMC4821601, “The Interactions of P-Glycoprotein with Antimalarial Drugs, Including Substrate Affinity, Inhibition and Regulation” (PLoS ONE, 2016)

Key:
P-gp = settings: 20 μM, 96 hours, Caco-2, western blot vs control
Protocol: Caco-2 cells were seeded in 6 well plates at 10,000 cells/cm^2 for 21 days. Drugs and drug combinations at 20 μM prepared in cell growth medium were added on to the mature cells and exposed for 96 hours. After drug exposure, cells were washed three times using PBS and cell lysate was prepared in lysis buffer. The protein content was quantified using the 96 well micro-Lowry protein assay and regulation of P-gp was determined using western blotting.
The membrane was blocked using 2% casein in TBS and washed with TBST. The primary antibody; Mdr (G-1) mouse monoclonal IgG2b 200 and mouse anti-β actin were used as the antibody for β-actin, the reference protein. The antibody; HRP linked goat anti mouse IgG was used as the secondary antibody. The washed membrane was incubated in a BioRad clarity chemiluminescent substrate and enhancer was read and semi quantified using the BIORAD Chemidoc MPT imager with Image LabTM software.

P-glycoprotein (P-gp) = molecular target: T1, P-glycoprotein (P-gp) (Homo sapiens, UniProt P08183); assay: Bidirectional transport of rhodamine123 through Caco-2 monolayers co-incubated with antimalarials (P-gp inhibitory properties); type: in vitro ADME; settings: at 100 μM
T1 construct: In-vitro Caco-2 cell monolayers were used here as a model for potential drug absorption related problems and P-gp mediated transport of drugs; endogenous in cells; host or cells: Caco-2 (human colon carcinoma, ATCC)
T1 sequence (P08183 whole entry): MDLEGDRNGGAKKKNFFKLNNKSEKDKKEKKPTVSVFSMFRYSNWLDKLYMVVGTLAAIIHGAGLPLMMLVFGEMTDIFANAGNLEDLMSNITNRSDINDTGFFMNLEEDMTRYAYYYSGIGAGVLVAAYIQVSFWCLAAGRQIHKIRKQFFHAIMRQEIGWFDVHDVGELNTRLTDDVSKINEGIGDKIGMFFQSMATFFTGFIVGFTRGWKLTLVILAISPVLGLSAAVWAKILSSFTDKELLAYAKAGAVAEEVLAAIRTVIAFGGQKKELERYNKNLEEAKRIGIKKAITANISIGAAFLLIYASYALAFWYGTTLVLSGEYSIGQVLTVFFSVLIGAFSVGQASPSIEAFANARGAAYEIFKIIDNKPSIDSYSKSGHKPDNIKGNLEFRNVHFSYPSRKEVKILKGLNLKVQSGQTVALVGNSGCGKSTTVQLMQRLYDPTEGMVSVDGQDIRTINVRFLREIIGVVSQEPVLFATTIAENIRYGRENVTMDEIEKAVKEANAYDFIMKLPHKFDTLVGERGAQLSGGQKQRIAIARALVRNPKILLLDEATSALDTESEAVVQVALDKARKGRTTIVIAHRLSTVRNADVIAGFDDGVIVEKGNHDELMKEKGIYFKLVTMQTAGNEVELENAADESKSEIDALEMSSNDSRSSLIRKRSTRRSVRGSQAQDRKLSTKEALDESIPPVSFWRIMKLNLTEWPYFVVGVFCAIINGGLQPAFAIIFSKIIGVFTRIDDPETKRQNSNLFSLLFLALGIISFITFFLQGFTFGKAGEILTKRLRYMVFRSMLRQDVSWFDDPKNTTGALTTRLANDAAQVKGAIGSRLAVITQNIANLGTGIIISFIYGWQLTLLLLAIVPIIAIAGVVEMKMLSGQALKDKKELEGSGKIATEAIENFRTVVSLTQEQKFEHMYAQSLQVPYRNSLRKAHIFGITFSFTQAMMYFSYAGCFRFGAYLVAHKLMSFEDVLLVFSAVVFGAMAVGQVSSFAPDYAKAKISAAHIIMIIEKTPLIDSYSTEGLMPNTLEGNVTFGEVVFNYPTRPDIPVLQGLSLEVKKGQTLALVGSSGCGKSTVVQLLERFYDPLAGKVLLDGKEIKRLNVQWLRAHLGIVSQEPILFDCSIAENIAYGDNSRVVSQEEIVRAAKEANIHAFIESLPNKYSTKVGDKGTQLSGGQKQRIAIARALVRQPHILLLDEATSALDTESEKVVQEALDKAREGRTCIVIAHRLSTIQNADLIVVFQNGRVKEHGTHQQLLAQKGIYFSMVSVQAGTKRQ
Protocol: The Caco-2 cells were seeded on 0.6 cm^2 […] Millipore PCF™ filter inserts at the cell density of 65,000 cells/cm^2 as done previously in the lab. Briefly, the cells were grown for 21–24 days to allow full maturation and formation of tight monolayers. The initial experiments were conducted in mid-40s passage cells and repeated in early 80s passage Caco-2 cells. The Trans epithelial electrical resistance (TEER) was measured immediately before and after the experiment using an epithelial voltage/ohm meter and an ENDOHM 12 chamber (World precision instruments, Sarasota, FL). TEER values were measured both before and after the study with readings above 300 Ω.cm^2 considered as acceptable for tight junctions. […] In order to maintain equivalent transport medium (HBSS/HBSS with inhibitor) level both outside and inside the chambers, 300 μL was used as medium in the apical chambers and 600 μL in the basolateral chambers. […] Drugs were co-incubated with MRCP, BCRP and ATP hydrolysis blockers to determine the involvement of other efflux mechanisms. Prior to the experiment, the transport medium, HBSS or HBSS with P-gp inhibitors were pre-incubated with the cells for 30 minutes. Following incubation, inserts were placed in new well plates and donor chamber is replaced with drug or drug with inhibitor and the receiver chamber with blank HBSS or HBSS with inhibitor. Transport medium was collected from the receiver chamber after stirring at time intervals of 30, 60, 90 and 120 minutes and was replaced with the same volume of fresh HBSS, or HBSS with inhibitor, when P-gp inhibitors were used in the study. At the end of the experiment 100 μL of medium was removed from the donor chamber in addition to medium collected from the receiver chamber during the study. The cells were then washed thoroughly in cold (4°C) PBS and cell membranes attached to the inserts were sonicated for 10 minutes in a sonicating water bath and centrifuged at 10,000 g for 10 minutes. Supernatant was frozen at -80°C until assayed. The Papp values of three well plates were determined using methods modified from Artursson’s group as described by Crowe and Lemaire.
CL.vol=Aa/{[Cd0×Vd−[Aa+(Ca×Vs)]−(Ac)×n/nfin]/Vd}
CL.vol = clearance volume (mL), n = time (min), Aa = amount in acceptor compartment at time n (pmols), Cd0 = concentration in donor compartment at time zero (nM), Vd = volume of the donor compartment (mL), Ca = concentration in acceptor compartment at the previous time point (nM), Vs = sample volume of previous time point (mL), Ac = amount of compound associated with the cells (pmol), Nfin = final time point (min). Papp = Apparent permeability (cm/sec) Rate of clearance (mL/min)=CL.vol / n Papp (cm/sec)=Rate of clearance / Surface area (cm^2)
The cleared volume was plotted against time and the slope of the regression line was divided by the surface area to obtain the Papp values. […] Mean Papp for Bas-Ap direction was divided by the Ap-Bas direction to obtain the efflux ratio and values above two were considered as drugs having true efflux transport.

For `OC(c1cc(C(F)(F)F)nc2c(C(F)(F)F)cccc12)C1CCCCN1` (stereo not drawn) [MQ, mefloquine], the “regulation of P-gp expression” value (P-gp) was “not observed”, the P-gp inhibitory properties (P-glycoprotein (P-gp)) was “P-gp inhibitory properties” and the inhibition at 120 min, 100 µM (P-glycoprotein (P-gp); human, Caco-2 cell monolayers, probe rhodamine 123, read-out: inhibition of efflux driven transport) was ~50%.
